Results taken from patent publication US9549949B2, “Antiviral agent” (NBC MESHTEC, INC., priority 2008, dated 2017).
“And” between values parts separate entries of the source, which are not always exact repeats. Equal entries are not always repeated. Where two headings read alike, the source gives them in different places.

How the values were obtained:
Assay type in all cases: cell-based
[1] = tested on: influenza virus (influenza A/kitakyusyu/159/93 (H3N2)); experiment: Virus inactivation, plaque assay on MDCK cells; settings: enveloped influenza virus, time period as short as 1 minute
[2] = tested on: influenza virus (influenza A/kitakyusyu/159/93 (H3N2))
[3] = tested on: feline calicivirus (F9 strain); experiment: Virus inactivation, plaque assay on CrFK cells; settings: non-enveloped feline calicivirus, time period as short as 1 minute
[4] = conc. of substance 0.5 mass %, 10 minutes at room temperature, control (PBS) 128
[5] = conc. of substance 5 mass %, 10 minutes at room temperature, control (PBS) 128

Row | Molecule | virus inactivation activity (in words) [1] | HA titer [2, 4] | HA titer [2, 5] | virus inactivation activity (in words) [3] | HA titer [2]
1 | [Cu+].[I-] [Example 1, Copper (I) iodide] | sufficiently high virus inactivation activity | 32 | 8 | sufficiently high virus inactivation activity | –
2 | [I][Sb]([I])[I] [Example 3, Antimony (III) iodide] | – | 32 | 16 | – | –
3 | [I][Ir]([I])([I])[I] [Example 4, Iridium (IV) iodide] | – | 64 | 32 | – | –
4 | [I][Ge]([I])([I])[I] [Example 5, Germanium (IV) iodide] | – | <2 | <2 | – | –
5 | [I][Ge][I] [Example 6, Germanium (II) iodide] | – | 2 | <2 | – | –
6 | [I][Sn][I] [Example 7, Tin (II) iodide] | – | 2 | <2 | – | –
7 | [I][Sn]([I])([I])[I] [Example 8, Tin (IV) iodide] | – | 2 | <2 | – | –
8 | [I-].[Tl+] [Example 9, Thallium (I) iodide] | – | 64 | 32 | – | –
9 | [I-].[I-].[I-].[I-].[Pt+4] [Example 11, Platinum (IV) iodide] | – | 64 | 32 | – | –
10 | [I][Pd][I] [Example 12, Palladium (II) iodide] | – | 64 | 2 | – | –
11 | [I][Bi]([I])[I] [Example 13, Bismuth (III) iodide] | – | 64 | 8 | – | –
12 | [I][Au] [Example 14, Gold (I) iodide] | – | 64 | 4 | – | –
13 | [Fe+2].[I-].[I-] [Example 16, Iron (II) iodide] | – | <2 | <2 | – | –
14 | [Co+2].[I-].[I-] [Example 17, Cobalt (II) iodide] | – | 8 | <2 | – | –
15 | [I][Ni][I] [Example 18, Nickel (II) iodide] | – | – | – | – | <2 and 4
16 | [I-].[I-].[Zn+2] [Example 19, Zinc (II) iodide] | – | 4 | <2 | – | –
17 | [I][In]([I])[I] [Example 21, Indium (III) iodide] | – | <2 | <2 | – | –
18 | [Cl][Cu] [Example 22, Copper (I) chloride] | sufficiently high virus inactivation activity | <2 | <2 | sufficiently high virus inactivation activity | –
19 | [Cu][Br] [Example 23, Copper (I) bromide] | – | 32 | <2 | – | –
20 | CC(=O)[O-].[Cu+] [Example 24, Copper (I) acetate] | – | – | – | – | <2
21 | N#C[S-].[Cu+] [Example 25, Copper (I) thiocyanate] | – | 64 | 16 | – | –
22 | [Cu].[O]=[Cu] [Example 27, Copper (I) oxide] | – | 64 | 8 | – | –
23 | Silver (I) iodide [Example 20] | – | 64 | 32 | – | –
